Legend:
control yeasts = assay: Doxorubicin efflux from yeasts (intracellular dxr fluorescence); type: cell-based, Saccharomyces cerevisiae; details: 10 μM paniceins, 10 min, 5 mM 2-deoxy-D-glucose
Description: (§1) A. Compound P5 inhibits doxorubicin efflux from melanoma cells MeWo and A375. Cells were grown on cover-slips, incubated for 2 hour at 37° C. with 10 μM doxorubicin and quickly rinsed with phosphate buffer (pH 7.4). One cover-slip of each cell line was immediately fixed for doxorubicin charge control. The other cover-slips were incubated with buffer supplemented with DMSO or 10 μM of compound P5 30 min under gentle shaking and immediately fixed. Dxr intracellular fluorescence was visualized by epifluorescence and analyzed using Image J software on more than 30 cells of 3 different fields for each condition. The results were analyzed using the Student t test in which significance is attained at P<0.05 (**: P<0.005, ***: P<0.0005). B. Paniceins inhibit doxorubicin efflux from Patched-expressing yeasts. Yeasts expressing wild-type Patched (hPtc, in black), mutant Patched G509VD513Y (hPtcVXXXY, in grey), and control yeasts (in white) were incubated in buffer supplemented with 5 mM of 2-deoxy-D-glucose and 10 μM dxr for 2 hours at 4° C. After centrifugation and supernatant removing, one sample was immediately fixed for charge control and the other samples were resuspended in buffer containing 5 mM of 2-deoxy-D-glucose supplemented with DMSO or 10 μM of paniceins 10 minutes at 25° C. with gentle shaking. After centrifugation and supernatant removing, samples were fixed and deposited on coverslips for epifluorescence microscopy observation. Dxr intracellular fluorescence quantification was carried out using Image J software on more than 30 yeasts on 3 different fields for each condition. The results were analyzed using the Student t test in which significance is attained at P<0.05 (*).
On yeasts: Yeasts expressing Patched (hPtc), mutant Patched (hPtcG509VD513Y), or control yeasts were washed with cold water, resuspended at an OD600 of 10 in Hepes-NaOH buffer (pH 7.0) supplemented with 5 mM of 2-deoxy-D-glucose, and incubated with 10 μM doxorubicin for 2 hours at 4° C. in the cold room on a rotating wheel protected from light. Yeasts were centrifuged and the supernatant was removed. One sample was immediately fixed with 4% paraformaldehyde for doxorubicin loading control. […] Quantification of doxorubicin intracellular fluorescence was carried out using Image J software on more than 30 yeasts on 3 different fields for each condition. The results were analyzed using the Student t test in which significance is attained at P <0.05.
In order to see if Paniceins inhibit dxr efflux through Patched inhibition, inventors compared dxr efflux on yeasts over-expressing human Patched and control yeasts. […] Dxr fluorescence intensity of at least 30 yeasts was measured for each experiment. FIGS. 6A and 12A show the mean fluorescence intensity of 3 independent experiments. […]

[1] = target: T1, wild-type Patched (hPtc) expressed in yeasts (Homo sapiens, UniProt Q13635); assay: as above; type: cell-based; details: for Efflux (%) of dxr: WT-hPtc-yeasts, 10 μM paniceins, 10 min, 5 mM 2-deoxy-D-glucose; for dxr fluorescence in hPtc-expressing yeasts after efflux: 10 μM paniceins during efflux, contrary to control yeasts
T1 construct: MAP; expressed in transfected cells; host or cells: Saccharomyces cerevisiae K699
T1 sequence (Q13635 1-1447): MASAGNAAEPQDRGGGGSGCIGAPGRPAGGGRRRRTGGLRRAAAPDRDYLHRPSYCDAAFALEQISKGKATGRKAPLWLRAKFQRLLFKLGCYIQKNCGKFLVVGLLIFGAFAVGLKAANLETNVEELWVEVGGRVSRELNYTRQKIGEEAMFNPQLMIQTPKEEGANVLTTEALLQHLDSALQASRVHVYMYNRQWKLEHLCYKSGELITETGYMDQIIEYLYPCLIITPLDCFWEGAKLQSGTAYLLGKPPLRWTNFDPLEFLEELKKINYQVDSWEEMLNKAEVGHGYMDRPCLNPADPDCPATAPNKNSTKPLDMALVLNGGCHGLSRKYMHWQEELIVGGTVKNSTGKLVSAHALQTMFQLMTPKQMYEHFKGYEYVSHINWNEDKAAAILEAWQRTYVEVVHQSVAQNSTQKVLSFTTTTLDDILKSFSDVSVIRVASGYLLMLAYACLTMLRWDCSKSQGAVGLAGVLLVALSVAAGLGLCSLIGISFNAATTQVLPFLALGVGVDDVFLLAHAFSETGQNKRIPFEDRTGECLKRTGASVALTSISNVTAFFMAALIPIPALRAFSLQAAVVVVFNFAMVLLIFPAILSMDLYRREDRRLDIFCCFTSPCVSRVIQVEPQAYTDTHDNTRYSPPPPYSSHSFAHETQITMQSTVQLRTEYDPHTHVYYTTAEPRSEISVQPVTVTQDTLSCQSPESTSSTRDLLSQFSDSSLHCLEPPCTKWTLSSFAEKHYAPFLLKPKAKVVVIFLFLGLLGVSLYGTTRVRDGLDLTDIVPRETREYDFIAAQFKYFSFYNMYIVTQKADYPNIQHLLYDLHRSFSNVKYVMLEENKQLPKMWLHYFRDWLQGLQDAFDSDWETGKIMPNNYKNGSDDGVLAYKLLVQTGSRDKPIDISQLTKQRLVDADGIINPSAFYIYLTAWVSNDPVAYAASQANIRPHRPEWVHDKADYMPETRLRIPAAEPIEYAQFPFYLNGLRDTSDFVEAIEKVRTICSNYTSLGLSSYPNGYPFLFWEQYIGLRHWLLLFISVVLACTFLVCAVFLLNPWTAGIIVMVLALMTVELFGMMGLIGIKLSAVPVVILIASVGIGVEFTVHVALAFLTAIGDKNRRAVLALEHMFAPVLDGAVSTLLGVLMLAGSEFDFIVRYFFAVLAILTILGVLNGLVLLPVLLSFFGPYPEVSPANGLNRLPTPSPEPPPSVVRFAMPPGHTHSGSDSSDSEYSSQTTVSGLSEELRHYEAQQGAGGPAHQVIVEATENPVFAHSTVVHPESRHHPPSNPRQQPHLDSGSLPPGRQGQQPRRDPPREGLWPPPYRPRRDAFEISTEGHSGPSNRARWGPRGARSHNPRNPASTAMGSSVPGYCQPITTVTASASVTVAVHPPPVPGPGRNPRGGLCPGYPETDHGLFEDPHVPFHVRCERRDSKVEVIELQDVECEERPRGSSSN
Description: as §1
On yeasts: Yeasts expressing Patched (hPtc), mutant Patched (hPtcG509VD513Y), or control yeasts were washed with cold water, resuspended at an OD600 of 10 in Hepes-NaOH buffer (pH 7.0) supplemented with 5 mM of 2-deoxy-D-glucose, and incubated with 10 μM doxorubicin for 2 hours at 4° C. in the cold room on a rotating wheel protected from light. Yeasts were centrifuged and the supernatant was removed. One sample was immediately fixed with 4% paraformaldehyde for doxorubicin loading control. The other samples were resuspended in Hepes-NaOH buffer (pH 7.0) containing 5 mM of 2-deoxy-D-glucose supplemented with DMSO or 10 μM of paniceins, and incubated 10 minutes at 20° C. with gentle shaking in a Benchmark Multi-therm shaker protected from light. Samples were centrifuged for 1 minute at 18,000 g, supernatants were removed and yeasts were fixed with 4% paraformaldehyde. 10 μL of each sample were deposited on a coverslip and observed by epifluorescence microscopy using an objective 63x and filters for Alexa 594. Quantification of doxorubicin intracellular fluorescence was carried out using Image J software on more than 30 yeasts on 3 different fields for each condition. The results were analyzed using the Student t test in which significance is attained at P <0.05.
In order to see if Paniceins inhibit dxr efflux through Patched inhibition, inventors compared dxr efflux on yeasts over-expressing human Patched and control yeasts. After loading with dxr, yeasts were centrifuged and fixed for dxr loading control (LC), or resuspended in buffer supplemented with DMSO or paniceins for efflux measurements. After 10 min a 20° C., yeasts were collected, fixed and deposited on cover-slips. 2-deoxy-D-glucose was added in buffer during loading and efflux in order to inhibit ATP-binding cassette (ABC) transporters. Dxr fluorescence intensity of at least 30 yeasts was measured for each experiment. FIGS. 6A and 12A show the mean fluorescence intensity of 3 independent experiments. […] This was confirmed using yeasts over-expressing Patched mutant VXXXY. […] Yeasts over-expressing hPtcVXXXY are less resistance to growth inhibition by dxr than yeasts over-expressing wild-type hPtc (Bidet et al., 2012).

Row | SMILES | Efflux (%) of dxr (control yeasts) | Efflux (%) of dxr [1] | dxr fluorescence in hPtc-expressing yeasts after efflux [1]
1 | C/C(=C\Cc1cc(O)ccc1O)CCc1c(C)cc(O)c(C=O)c1C [P3, Panicein B3] | 25% | 46% | –
2 | Cc1cc(O)c(C=O)c(C)c1CCC1(C)C=Cc2cc(O)ccc2O1 (stereo not shown) [P4, Panicein B2] | 29% | 46% | significantly higher amounts of dxr fluorescence
3 | COc1cc(C)c(CC/C(C)=C/Cc2cc(O)ccc2O)c(C)c1C [P5, Panicein A hydroquinone] | 39% | 40% | significantly higher amounts of dxr fluorescence
4 | C/C(=C\Cc1cc(O)ccc1O)CCc1c(C)c(O)c(O)c(C=O)c1C [P2, Panicein C] | 20% | 51% | –

From patent publication US10376476B2, “Panicein compounds, compositions and uses thereof” (CENTRE NATIONAL DE LA RECHERCHE SCIENTIFIQUE, priority 2014, dated 2019)
